Values after ≈ are worked out from the molar mass of the structure shown.

Data set [1] deals with leukemia L1210. Put plainly: leukemia L1210 implanted mice, survival time. To be noted: for Treated/Control value of survival time, L1210: similar to (ii). The format is in vivo. How it is done:
Mice implanted with leukemia L1210 are treated as described above with 30 mg. of active substance per kilo for a continuing period until all the animals succumb.

For data set [2], the system named is secondary mouse fibroblast cultures. Put plainly: inhibition of 3H-thymidine incorporation (rate of DNA synthesis) in mammalian cell cultures. The format is cell-based. Conditions: 22 hours incubation; for inhibition at 3 µg/mL: 3 μg./ml.; for inhibition at 0.3 µg/mL: 0.3 μg./ml.; for inhibition at 1 µg/mL: 1 μg./ml.; for inhibition at 200 µg/mL: 200 μg./ml. As to the method: The overall effects of various compounds on the rate of synthesis of DNA is mammalian cell cultures are determined with the method of Birnie and Simons (Experimental Cell Research, 1967, 46, 355) by measuring the changes in the amount of ^3 H-thymidine incorporated in 1 hour by secondary mouse fibroblast cultures which have been incubated with a particular compound for 22 hours.
Typical results illustrating the degree of inhibition of ^3 H-thymidine incorporation for the treated fibroblasts as compared with untreated fibroblasts are given in Table I. The results obtained can be regarded as a measure of cytotoxicity and correlate well with results obtained with implanted tumors in mice.
On the technique in general: Uptake of a labelled nucleoside into DNA is a usual measure of proliferation.

Data set [3] deals with Sarcoma 180 (S180). Put plainly: implanted tumor Sarcoma 180, mean tumor weight. The format is in vivo, mice. As to the method:
(§1) ii. Mice having implanted tumors Sarcoma 180 and Adenocarcinoma 755, and rats having the implanted tumor Walker 256, are treated with 1,2-bis(3,5-dioxopiperazin-1-yl) ethane. The compound is administered by intraperitoneal injection of a suspension of the substance in isotonic saline containing 1/2% (w/v) carboxymethyl cellulose. The mice are dosed with 30 mg. of active substance per kilo daily for 5 out of 8 days, and their tumors are exercised and weighed. The rats are given one dose only of 400 mg. per kilo and maintained without further treatment for 8 days when their tumors are also removed and weighed. Compared with control animals typical Treated/Control values of mean tumor weight for the S180 and Ca 755 tumors are in the range of 5-10%, and for the Walker tumors of the order of 20%.
iii. In tests with tumor S180 similar to those described under (ii) typical Treated/Control values of mean tumor weight for dl-1,2-bis(3,5-dioxopiperazin-1-yl) butane and meso-2,3-bis(3,5-dioxopiperazin-1-yl) butane are 84% at 30 mg./Kg. and 22% at 0.25 mg./Kg. respectively.

Data set [4] concerns tumours and other forms of cancer. Nature of the data set: anti-cancer / biological activity, general statement. Conditions: for biological activity of d and l forms compared with racemic dl mixture: each substantially free from the other and from the dl form.
Data set [5] relates to Walker 256. Put plainly: implanted tumor Walker 256, mean tumor weight. The data set is classed as in vivo. Conditions: rats, i.p., one dose of 400 mg. per kilo, 8 days. As to the method:
as §1

The subject of data set [6] is Adenocarcinoma 755 (Ca 755). Nature of the data set: implanted tumor Adenocarcinoma 755, mean tumor weight. The format is in vivo. Conditions: mice, i.p., 30 mg. per kilo daily for 5 out of 8 days. How it is done:
as §1

In data set [7] the test system is leukemia L1210. Put plainly: leukemia L1210 ascites cells injected intraperitoneally, survival and non-takes (Table II). The data set is classed as in vivo, mice. To be noted: daily i.p. 40 mg./Kg.; for Non-takes: groups of 10 mice, 10% DMSO control 1/10; for Mean survival days: 10% DMSO control 10.1; for Survival days: individual mice. As to the method: v. A suspension of leukaemic cells from DBA2 mice heavily infected with leukemia L1210 is obtained by removing ascites from the peritoneal cavity. The ascitic fluid is diluted in saline and injected intraperitoneally at a level of 10^6 cell into groups of BDFi females.
Stock solutions of each of the dl, d and l isomers of 1,2-bis(3,5-dioxopiperaxin-1-yl)propane in dimethylsulphoxide (DMSO) are prepared and kept frozen. The solutions are thawed each morning and an aliquot diluted 10-fold with saline. Daily intraperitoneal injections of the three diluted solutions into groups of 10 mice are started on the day after innoculation of the leukaemic cells at a daily dosage level of 40 mg./Kg. (equivalent to 0.5 to 1.0 ml of solution per injection). A control group of mice is injected daily with a similar volume of 10% DMSO in saline.
In general, the deaths of mice in any group occur within a few days of each other. If one or more members of a group survive 5 days longer than any other of their companions, injections are stopped and if these mice survive a further 5 days they are classed as failures of transplantation. This is merely an objective criterion of a situation which is visually obvious; the "non-Takes" typically looking sleek and healthy and having no tumor at the inoculation site nor having their bellies swollen with ascitic fluid.

Data set [8] can be described thus: physchem. To be noted: water. The source says: Although the invention is restricted to one stereoisomeric form as far as certain compounds are concerned, others can exist in different stereoisomeric forms, thus the cyclo-butane analogue (I,R1 R2 = C2 H4) can exist in a trans form and also a cis form.
The test system of data set [9] is leukemia L1210. Nature of the data set: inter-cerebrally implanted leukemia L1210. The data set is classed as in vivo.
Data set [10] has as its system lymphosarcomas, fibrosarcomas, carcinomas, lymphoblastic leukemias and Hodgkin's disease. Nature of the data set: trials in human patients with various forms of cancer. To be noted: some previously treated unsuccessfully with other drugs or radiotherapy. The format is in vivo.
Data set [11] in a line: stability of aqueous salt solutions. The format is physicochemical. To be noted: acid solution plus disodium hydrogen phosphate, pH 5.7; injection within 1 hour of preparation recommended. How it is done: When the compounds are to be formulated as salts, preferred formulations are prepared with methane sulphonic acid, isethionic acid, tartaric acid and other solubilizing acids. Salts thus formed are frequently difficult to isolate in view of the weak basicity of some of the parent compounds but their aqueous solutions, after adjustment to physiologically acceptable pH with buffers, are stable for extended periods of time. Solutions of similar strength, i.e., 0.5% (w/v), are also obtainable with hydrochloric acid.
iv. The product of Example 2 (0.548 g.) is added to 5 ml. of a 0.4N solution of (1) hydrochloric acid, (2) isethionic acid, (3) methane sulphonic acid, or (4) tartaric acid, and the mixture is made up to 100 ml. by the addition of water. The solution so obtained is added to an aqueous solution of disodium hydrogen phosphate (0.2M, 10 ml.) to provide a stable solution having a pH of 5.7. Injection of the solution within 1 hour of preparation is recommended.

Data set [12] in a line: survival and weight gain of treated S180 tumor-bearing mice. The format is in vivo. To be noted: fed at 30 mg./Kg. on 5 out of 8 days.
For data set [13], the system named is metastases. Put plainly: inhibition of metastases. Conditions: in vivo.

For the molecule `C[C@H]([C@@H](C)N1CC(=O)NC(=O)C1)N1CC(=O)NC(=O)C1` (relative stereo) [dl-2,3-bis(3,5-dioxopiperazin-1-yl)butane, reference compound], the “Treated/Control value of survival time, L1210” value in [1] (30 mg./Kg.) was 80%. Testing at 3 µg/mL in [2] gave an inhibition of 3%. This molecule also registered an inhibition at 13 µg/mL in data set [2] (13 μg./ml.) of 26%. The “Treated/Control value of mean tumor weight, S180” value in data set [3] (30 mg./Kg., similar to (ii)) is 84%. The “anti-cancer activity, in words” value in [4] was “essentially inactive”.

`O=C1CN(CCN2CC(=O)NC(=O)C2)CC(=O)N1` [1,2-bis(3,5-dioxopiperazin-1-yl)ethane, 1,2-bis(3,5-Dioxopiperazin-1-yl)ethane] showed an inhibition at 0.3 µg/mL in data set [2] of 21%. This molecule registered an inhibition at 8 µg/mL in [2] (8 μg./ml.) of 69%. Moreover, in data set [3] (mice, i.p., 30 mg. per kilo daily for 5 out of 8 days), the “Treated/Control value of mean tumor weight, S180” value is 5-10%. For the same molecule, the “Treated/Control value of mean tumor weight, Walker” value in [5] is around 20%. The “Treated/Control value of mean tumor weight, Ca 755” value in data set [6] is 5-10%.

For the molecule `C[C@H](CN1CC(=O)NC(=O)C1)N1CC(=O)NC(=O)C1` [l-1,2-bis(3,5-Dioxopiperazin-1-yl)propane], in data set [7], the “% Increase of survival time over controls” value (shortened to “% Increase of survival time”) turned out to be 99%, the Non-takes was 0/10 and the Mean survival days amounted to 20.1 days. For the same molecule, the Survival days in data set [7] (listed as l-) was 26 days. In [2], this molecule gave an inhibition at 1 µg/mL of 52% and an inhibition at 200 µg/mL of 72%. In data set [4], the “biological activity of d and l forms compared with racemic dl mixture” value is given as “no substantial difference in biological activity”. In addition, the solubility in data set [8] was around 11000 µg/mL (≈ 41 mM).

With `CC(CN1CC(=O)NC(=O)C1)N1CC(=O)NC(=O)C1` (racemic) [dl-1,2-bis(3,5-Dioxopiperazin-1-yl)propane], the “effectiveness against inter-cerebrally implanted leukemia L1210” value in [9] (in vivo) was “effective”. For the same molecule, the “ability to cross the blood-brain barrier” value in [9] (indicated by effect on inter-cerebrally implanted L1210) is given as “indicative of the ability of the compound to cross the blood-brain barrier”. Further, in [7], the “% Increase of survival time” value was 86%, the Non-takes is listed as 0/10 and the Mean survival days turned out to be 18.8 days. This molecule also had a Survival days in [7] (listed as dl-) of 25 days. Also, in data set [10], the “regression and palliation of cancers in patients” value is “significant regression and palliation of the cancers”. In addition, the “Treated/Control value for survival time, L1210” value in data set [1] (intraperitoneal, 30 mg./Kg. daily until death) was determined as 257%. In addition, in data set [1] (orally, 75 mg./Kg.), the “Treated/Control value for survival time, L1210” value is recorded as 157%. The “Treated/Control value for survival time, L1210” value in data set [1] (subcutaneous, 30 mg./Kg. daily until death) was 223%. In data set [2], this molecule displayed an inhibition at 0.3 µg/mL of 15% and an inhibition at 1 µg/mL of 48%. This molecule returned an inhibition at 5 µg/mL in [2] (5 μg./ml.) of 63%. Besides, the “Treated/Control value for mean tumor weight, S180” value in data set [3] (mice, fed at 30 mg./Kg. on 5 out of 8 days) was found to be 7%. For the same molecule, in [11], the stability of solution result was “stable”. In addition, the survival of animals result in [12] is “all the animals surviving”. In data set [12] (controls 29%), this molecule showed a weight gain of 12%. The solubility in data set [8] is around 1000 µg/mL (≈ 3.73 mM).

For the molecule `C[C@H]([C@H](C)N1CC(=O)NC(=O)C1)N1CC(=O)NC(=O)C1` [meso-2,3-bis(3,5-Dioxopiperazin-1-yl)butane], the “Treated/Control value of survival time, L1210” value in [1] (0.25 mg./Kg.) is listed as 165%. The molecule also displayed an inhibition at 0.002 µg/mL in data set [2] (0.002 μg./ml.) of 19%. For the same molecule, 0.01 µg/mL produced 72% inhibition in [2] (0.01 μg./ml.). In addition, the inhibition at 1 µg/mL in data set [2] was 78%. For the same molecule, the “Treated/Control value of mean tumor weight, S180” value in data set [3] (0.25 mg./Kg., similar to (ii)) came out at 22%. Moreover, the “anti-cancer activity, in words” value in data set [4] is reported as “significant activity”.

Turning to `C[C@@H](CN1CC(=O)NC(=O)C1)N1CC(=O)NC(=O)C1` [d-1,2-bis(3,5-Dioxopiperazin-1-yl)propane], in data set [7], the “% Increase of survival time” value is on record as 93%, the Non-takes is listed as 0/10 and the Mean survival days came out at 19.5 days. In data set [7] (listed as d-), this molecule had a Survival days of 26 days. In data set [2], this molecule had an inhibition at 1 µg/mL of 44% and an inhibition at 200 µg/mL of 74%. In addition, the “biological activity of d and l forms compared with racemic dl mixture” value in data set [4] is recorded as “no substantial difference in biological activity”.

Take `O=C1CN([C@@H]2CC[C@H]2N2CC(=O)NC(=O)C2)CC(=O)N1` (relative stereo) [trans-1,2-bis(3,5-Dioxopiperazin-1-yl)cyclobutane]: the inhibition at 3 µg/mL in data set [2] is 22%. In addition, at 67 µg/mL the inhibition in data set [2] (67 μg./ml.) was 60%.

For the molecule `O=C(O)CN(CCN(CC(=O)O)CC(=O)O)CC(=O)O` [ethylene diamine tetra-acetic acid, reference compound], the “anti-cancer activity, in words” value in [4] was “lack of activity”.

Regarding `CC(CN1CC(=O)NC(=O)C1)N1CC(=O)NC(=O)C1` (centres unmarked) [1,2-bis(3,5-dioxopiperazin-1-yl)propane], the inhibition of metastases result in data set [13] is recorded as “marked degree of inhibition of metastases”.

A word on the inhibition: it is the drop in the measured response relative to a control, in per cent. Low values mean little suppression, high ones strong suppression. As a reminder, the solubility is how much of the substance goes into solution per volume.

Values taken from US3941790A, “Bis diketopiperazines” (National Research Development Corporation, priority 1967, dated 1976).
